In general, EC50 refers to the concentration needed to bring the measured effect to its halfway point.

For the first assay, the target named is T1, PD-1/PD-L1 interaction (Homo sapiens, UniProt Q9NZQ7).
T1 construct: expressed in transfected cells; host or cells: CHO cells (aAPC-PD-L1) co-cultured with Jurkat cells overexpressing PD-1 and an NFAT-luciferase reporter
T1 sequence (Q9NZQ7 19-290): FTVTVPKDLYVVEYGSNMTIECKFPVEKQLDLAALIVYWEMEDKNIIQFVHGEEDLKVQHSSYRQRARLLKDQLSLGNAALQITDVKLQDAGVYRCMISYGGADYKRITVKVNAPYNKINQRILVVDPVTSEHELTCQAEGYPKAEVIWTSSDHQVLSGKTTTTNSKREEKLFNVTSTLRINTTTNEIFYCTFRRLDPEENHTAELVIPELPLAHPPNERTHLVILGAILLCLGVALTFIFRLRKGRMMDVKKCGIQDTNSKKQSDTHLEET
Kind of assay: PD-1/PD-L1 NFAT reporter co-culture assay. Type of assay: cell-based.
Conditions: not given
The method, then:
PD-1/PD-L1 NEAT Reporter Assay:
Compounds were tested in afunctional co-culture reporter assay in which TCR-mediated NFAT activity is inhibited by the engagement of PD-1 with PD-L1. […] CHO cells expressing surface-bound anti-CD3 antibodies and PD-L1 (artificial antigen presenting cells, aAPC-PD-L1) were first seeded overnight. Jurkat cells overexpressing PD-1 and expressing a luciferase construct under NFAT control are diluted in RPMI assay medium (RPMI 1640 with 2% FBS), mixed with compounds, and immediately seeded on the monolayer of aAPC-PD-L1. The co-culture is then incubated for 6 hrs at 37° C. Luciferase activity is assessed by adding the ONE-Glo reagent and measuring luminescence with a plate reader. EC50 values are calculated from the fit of the dose-response curves to a four-parameter equation (Table 3).
`COc1nc(OCc2cccc(-c3cccc(COc4nc(OC)c(CNCc5cc(O)no5)cc4Cl)c3C)c2C)c(Cl)cc1CNCc1cc(O)no1` [Example 63, 5,5′-(((((((2,2′-dimethyl-[1,1′-biphenyl]-3,3′-diyl)bis(methylene))bis(oxy))bis(5-chloro-2-methoxypyridine-6,3-diyl))bis(methylene))bis(azanediyl))bis(methylene))bis(isoxazol-3-ol)] gave an EC50 of at least 50000 nM.

The same assay, now with this note: Jurkat PD-1 NFAT-luciferase cells co-cultured with aAPC-PD-L1 CHO cells, 6 hrs at 37° C.; read-out: EC50 NFAT Luciferase.
On to `COc1nc(OCc2cccc(-c3cccc(COc4nc(OC)c(C(CC(=O)O)N(C)C)cc4Cl)c3C)c2C)c(Cl)cc1C(CC(=O)O)N(C)C` (mixture of isomers) [Example 236, 3,3′-((((2,2′-dimethyl-[1,1′-biphenyl]-3,3′-diyl)bis(methylene))bis(oxy))bis(5-chloro-2-methoxypyridine-6,3-diyl))bis(3-(dimethylamino)propanoic acid)], for which the EC50 came out at 5030 nM.

Consider `COc1nc(OCc2cccc(-c3cccc(COc4nc(OC)c(CN5CC(NC(C)=O)C5)cc4Cl)c3C)c2C)c(Cl)cc1CN1CC(NC(C)=O)C1` [Example 37, N,N′-((((((2,2′-dimethyl-[1,1′-biphenyl]-3,3′-diyl)bis(methylene))bis(oxy))bis(5-chloro-2-methoxypyridine-6,3-diyl))bis(methylene))bis(azetidine-1,3-diyl))diacetamide], for which the EC50 worked out at 894 nM.

In the case of `COc1nc(OCc2cccc(-c3cccc(COc4nc(OC)c(CN[C@@](C)(CO)C(=O)O)cc4Cl)c3C)c2C)c(Cl)cc1CN[C@@](C)(CO)C(=O)O` [Example 44, (2S,2′S)-2,2′-((((((2,2′-dimethyl-[1,1′-biphenyl]-3,3′-diyl)bis(methylene))bis(oxy))bis(5-chloro-2-methoxypyridine-6,3-diyl))bis(methylene))bis(azanediyl))bis(3-hydroxy-2-methylpropanoic acid)], the EC50 was found to be 62 nM.

With `COc1nc(OCc2cccc(-c3cccc(COc4nc(OC)c(CN[C@](C)(CO)C(=O)O)cc4Br)c3C)c2C)c(Br)cc1CN[C@](C)(CO)C(=O)O` [Example 46, (2R,2′R)-2,2′-((((((2,2′-dimethyl-[1,1′-biphenyl]-3,3′-diyl)bis(methylene))bis(oxy))bis(5-bromo-2-methoxypyridine-6,3-diyl))bis(methylene))bis(azanediyl))bis(3-hydroxy-2-methylpropanoic acid)], the EC50 stood at 87 nM.

On to `COc1nc(OCc2cccc(-c3cccc(COc4nc(OC)c(CN[C@@H](CO)C(=O)O)cc4Cl)c3C)c2C)c(Cl)cc1CN[C@@H](CO)C(=O)O` [Example 50, (2S,2′S)-2,2′-((((((2,2′-dimethyl-[1,1′-biphenyl]-3,3′-diyl)bis(methylene))bis(oxy))bis(5-chloro-2-methoxypyridine-6,3-diyl))bis(methylene))bis(azanediyl))bis(3-hydroxypropanoic acid)], for which the EC50 was 76 nM.

On to `COc1nc(OCc2cccc(-c3cccc(COc4nc(OC)c(CN[C@H](C(=O)O)[C@@H](C)O)cc4Cl)c3C)c2C)c(Cl)cc1CN[C@H](C(=O)O)[C@@H](C)O` [Example 51, (2S,2′S,3R,3′R)-2,2′-((((((2,2′-dimethyl-[1,1′-biphenyl]-3,3′-diyl)bis(methylene))bis(oxy))bis(5-chloro-2-methoxypyridine-6,3-diyl))bis(methylene))bis(azanediyl))bis(3-hydroxybutanoic acid)], for which the EC50 came to 105 nM.

As to `COc1nc(OCc2cccc(-c3cccc(COc4nc(OC)c(CNC(CO)c5nn[nH]n5)cc4Cl)c3C)c2C)c(Cl)cc1CNC(CO)c1nn[nH]n1` (stereo not shown) [Example 52, 2,2′-((((((2,2′-dimethyl-[1,1′-biphenyl]-3,3′-diyl)bis(methylene))bis(oxy))bis(5-chloro-2-methoxypyridine-6,3-diyl))bis(methylene))bis(azanediyl))bis(2-(2H-tetrazol-5-yl)ethan-1-ol)], the EC50 amounted to 19800 nM.

On to `Cc1c(COc2cc(OCc3cncc(C#N)c3)c(CN3CCCC[C@H]3C(=O)O)cc2Cl)cccc1-c1cccc(COc2cc(OCc3cncc(C#N)c3)c(CN3CCCC[C@H]3C(=O)O)cc2Cl)c1C` [Example 53, (2S,2′S)-1,1′-(((((2,2′-dimethyl-[1,1′-biphenyl]-3,3′-diyl)bis(methylene))bis(oxy))bis(5-chloro-2-((5-cyanopyridin-3-yl)methoxy)-4,1-phenylene))bis(methylene))bis(piperidine-2-carboxylic acid)], for which the EC50 turned out to be 722 nM.

Consider `CCOC(=O)C[C@H](O)CNCc1cc(C2CC2)c(OCc2cccc(-c3cccc(COc4nc(OC)c(CNC[C@@H](O)CC(=O)O)cc4C4CC4)c3C)c2C)nc1OC` [Example 56, (S)-4-(((5-cyclopropyl-6-((3′-(((3-cyclopropyl-5-((((S)-4-ethoxy-2-hydroxy-4-oxobutyl)amino)methyl)-6-methoxypyridin-2-yl)oxy)methyl)-2,2′-dimethyl-[1,1′-biphenyl]-3-yl)methoxy)-2-methoxypyridin-3-yl)methyl)amino)-3-hydroxybutanoic acid], for which the EC50 is at least 50000 nM.

Consider `Cc1c(COc2cc(OCc3cccc(S(C)(=O)=O)c3)c(CN[C@@](C)(CO)C(=O)O)cc2Cl)cccc1-c1cccc(COc2cc(OCc3cccc(S(C)(=O)=O)c3)c(CN[C@@](C)(CO)C(=O)O)cc2Cl)c1C` [Example 57, (2S,2′S)-2,2′-((((((2,2′-dimethyl-[1,1′-biphenyl]-3,3′-diyl)bis(methylene))bis(oxy))bis(5-chloro-2-((3-(methylsulfonyl)benzyl)oxy)-4,1-phenylene))bis(methylene))bis(azanediyl))bis(3-hydroxy-2-methylpropanoic acid)], for which the EC50 came out at 351 nM.

On to `COc1nc(OCc2cccc(-c3cccc(COc4nc(OC)c(CN5CCc6[nH]cnc6C5C(=O)O)cc4Cl)c3C)c2C)c(Cl)cc1CN1CCc2[nH]cnc2C1C(=O)O` (stereo not shown) [Example 62, 5,5′-(((((2,2′-dimethyl-[1,1′-biphenyl]-3,3′-diyl)bis(methylene))bis(oxy))bis(5-chloro-2-methoxypyridine-6,3-diyl))bis(methylene))bis(4,5,6,7-tetrahydro-1H-imidazo[4,5-c]pyridine-4-carboxylic acid)], for which the EC50 was 19500 nM.

Consider `COc1nc(OCc2cccc(-c3cccc(COc4nc(OC)c(CN[C@](C)(CO)C(=O)O)cc4C4CC4)c3C)c2C)c(C2CC2)cc1CN[C@](C)(CO)C(=O)O` [Example 64, (2R,2′R)-2,2′-((((((2,2′-dimethyl-[1,1′-biphenyl]-3,3′-diyl)bis(methylene))bis(oxy))bis(5-cyclopropyl-2-methoxypyridine-6,3-diyl))bis(methylene))bis(azanediyl))bis(3-hydroxy-2-methylpropanoic acid)], for which the EC50 is 9780 nM.

As for `COc1nc(OCc2cccc(-c3cccc(COc4nc(OC)c(CN5CCC5C(N)=O)cc4Cl)c3C)c2C)c(Cl)cc1CN1CCC1C(N)=O` (stereo not shown) [Example 65, 1,1′-(((((2,2′-dimethyl-[1,1′-biphenyl]-3,3′-diyl)bis(methylene))bis(oxy))bis(5-chloro-2-methoxypyridine-6,3-diyl))bis(methylene))bis(azetidine-2-carboxamide)], the EC50 worked out at 3350 nM.

Regarding `COc1nc(OCc2cccc(-c3cccc(COc4nc(OC)c(CN[C@@H]5CCC[C@H]5C(=O)O)cc4Cl)c3C)c2C)c(Cl)cc1CN[C@@H]1CCC[C@H]1C(=O)O` [Example 75, (1R,1′R,2R,2′R)-2,2′-((((((2,2′-dimethyl-[1,1′-biphenyl]-3,3′-diyl)bis(methylene))bis(oxy))bis(5-chloro-2-methoxypyridine-6,3-diyl))bis(methylene))bis(azanediyl))bis(cyclopentane-1-carboxylic acid)], the 50% effective concentration (EC50) was determined as 384 nM.

For `COc1nc(OCc2cccc(-c3cccc(COc4nc(OC)c(CNCC(C)(C)C(=O)O)cc4Cl)c3C)c2C)c(Cl)cc1CNCC(C)(C)C(=O)O` [Example 77, 3,3′-((((((2,2′-dimethyl-[1,1′-biphenyl]-3,3′-diyl)bis(methylene))bis(oxy))bis(5-chloro-2-methoxypyridine-6,3-diyl))bis(methylene))bis(azanediyl))bis(2,2-dimethylpropanoic acid)], the EC50 was at least 50000 nM.

On to `COc1nc(OCc2cccc(-c3cccc(COc4nc(OC)c(CN[C@@H]5CCC[C@@H]5C(=O)O)cc4Cl)c3C)c2C)c(Cl)cc1CN[C@@H]1CCC[C@@H]1C(=O)O` [Example 79, (1S,1′S,2R,2′R)-2,2′-((((((2,2′-dimethyl-[1,1′-biphenyl]-3,3′-diyl)bis(methylene))bis(oxy))bis(5-chloro-2-methoxypyridine-6,3-diyl))bis(methylene))bis(azanediyl))bis(cyclopentane-1-carboxylicacid)], for which the EC50 is 381 nM.

Turning to `COc1nc(OCc2cccc(-c3cccc(COc4nc(OC)c(CN[C@H]5CCCC[C@@H]5C(=O)O)cc4Cl)c3C)c2C)c(Cl)cc1CN[C@H]1CCCC[C@@H]1C(=O)O` [Example 80, (1S,1′S,2S,2′S)-2,2′-((((((2,2′-dimethyl-[1,1′-biphenyl]-3,3′-diyl)bis(methylene))bis(oxy))bis(5-chloro-2-methoxypyridine-6,3-diyl))bis(methylene))bis(azanediyl))bis(cyclohexane-1-carboxylic acid)], the EC50 is at least 50000 nM.

For `COc1nc(OCc2cccc(-c3cccc(COc4nc(OC)c(CNC(C)(C)CC(=O)O)cc4Cl)c3C)c2C)c(Cl)cc1CNC(C)(C)CC(=O)O` [Example 82, 3,3′-((((((2,2′-dimethyl-[1,1′-biphenyl]-3,3′-diyl)bis(methylene))bis(oxy))bis(5-chloro-2-methoxypyridine-6,3-diyl))bis(methylene))bis(azanediyl))bis(3-methylbutanoic acid)], the EC50 was found to be 1710 nM.

(Values after patent publication US12590062B2, “PD-1/PD-L1 inhibitors” (Gilead Sciences, Inc., priority 2017, dated 2026).)
